Experimental data reported in patent US8853183B2, “Prognosis and treatment of breast cancer” (Trustees of Darmouth College, priority 2005, dated 2014).

Assays:
[1] = test system: human ovarian tumor cell xenografts; conditions: nude mice; Pizer, et al. (1996); cited from earlier work
breast cancer cells = conditions: Pizer, et al. (1996); cited from earlier work
[2] = test system: lipogenic prostate cancer cells; conditions: Kridel, et al. (2004); cited from earlier work
[3] = test system: lipogenic prostate cancer cells xenografts; conditions: immunodeficient mice; Kridel, et al. (2004); cited from earlier work
human FAS gene promoter = assay: Human FAS gene promoter fragment luciferase reporter; type: cell-based; conditions: 48 hours exposure
Protocol: (§1) Using a human S14 gene promoter fragment fused to a luciferase reporter, the mechanism underlying R1881-induced accumulation of S14 mRNA was determined. The human S14 construct contained the proximal 4003 bp of the S14 promoter (Campbell, et al. (2003) Endocrinol. 144:5242-5248). […] Nevertheless, R1881 induced promoter activity by 4-fold. Employing a 157 bp fragment of the human FAS gene promoter that is also devoid of progesterone response elements (Swinnen, et al. (1997) supra), the effect of R1881 on FAS gene expression was examined.
(§2) T47D or HEK 293 cells were plated at 50% confluence in 75 cm^2 flasks and the next morning were transfected with 8 μg plasmid DNA in 48 μL FUGENE (Roche, Indianapolis, Ind.) in 5% charcoal-stripped serum-containing media without antibiotics. To ensure uniform transfection efficiency, cells were trypsinized, mixed, and redistributed into 6-well plates 8 hours later. Forty-eight hours post-transfection, culture medium was removed, and extracts prepared in reporter lysis buffer (250 μL/well; PROMEGA, Madison, Wis.). Lysates (20 μL) were assessed for luciferase activity using an LMaxII384 luminometer (MOLECULAR DEVICES, Sunnyvale, Calif.), and normalized to protein concentrations (BCA Protein Assay; Pierce, Rockland, Ill.).

human S14 gene promoter = assay: Human S14 gene promoter fragment luciferase reporter; type: cell-based; conditions: proximal 4003 bp of human S14 promoter fused to luciferase
Protocol: as §1, §2

S14 protein = assay: Western blot of S14 protein in T47D cells; conditions: single stimulus; R1881 10 nM 48 hours or adenovirus alone
FAS mRNA = assay: Real-time RT-PCR of FAS mRNA in T47D cells
S14 mRNA [4] = conditions: Heemers, et al. (2000); cited from earlier work
S14 mRNA [5] = assay: Real-time RT-PCR of S14 mRNA in T47D cells
SREBP-1c mRNA = assay: Real-time RT-PCR of SREBP-1c mRNA in T47D cells; conditions: 10 nM, within 48 hours, cyclophilin as control
[6] = 10 nM, within 48 hours, T47D cells, cyclophilin as control
[7] = time course using nM R5020, T47D cells

For C/C=C/C/C=C/CCC(=O)[C@H]1O[C@H]1C(N)=O [Cerulenin], the “growth of human ovarian tumor cell xenografts” value [1] is listed as “inhibit the growth” and the “apoptosis of breast cancer cells” value (breast cancer cells) is listed as “cause apoptosis”.

In the case of CCCCCCCCCCC[C@@H](C[C@@H]1OC(=O)[C@H]1CCCCCC)OC(=O)[C@H](CC(C)C)NC=O [Orlistat], the “apoptosis of lipogenic prostate cancer cells in culture” value [2] is listed as “causes apoptosis” and the “apoptosis of lipogenic prostate cancer cells in xenografts” value [3] is listed as “causes apoptosis”.

In the case of C[C@]1(O)CC[C@H]2[C@@H]3CCC4=CC(=O)CCC4=C3C=C[C@@]21C [R1881], the FAS promoter induction (human FAS gene promoter; 157 bp fragment of human FAS gene promoter) is reported as 4 fold, the “FAS promoter response, construct with sterol response element deleted” value (human FAS gene promoter) is reported as “markedly reduced” and the “S14 promoter activity induction” value (human S14 gene promoter) is reported as 4 fold. For the same compound, the “S14 protein (~16 kD band) on western blot” value (S14 protein) was “faint band”, the “FAS mRNA induction” value (FAS mRNA; [6]) was “significantly induced” and the “FAS mRNA induction by R1881 in presence of Ad-β-gal” value (FAS mRNA; T47D cells) was roughly 2 fold. For the same compound, the “S14 mRNA induction in T47D cells” value (S14 mRNA [4]) was “significantly induces”, the “S14 mRNA induction” value (S14 mRNA [5]; [6]) was “significantly induced” and the “S14 mRNA induction by R1881 in presence of control adenovirus (Ad-β-gal)” value (S14 mRNA [5]; R1881 10 nM, RNA harvested 40 hours later, MOI 50) was roughly 8 fold. For the same compound, the “SREBP-1c mRNA induction” value (SREBP-1c mRNA) was “significantly induced”.

In the case of CCC(=O)[C@@]1(C)CC[C@H]2[C@@H]3CCC4=CC(=O)CCC4=C3CC[C@@]21C [R5020], the “FAS mRNA induction, time course” value (FAS mRNA; [7]) is listed as “comparable to that observed with R1881”, the “lag time between application of the hormone and onset of accumulation of FAS mRNA” value (FAS mRNA; time course, T47D cells) is listed as greater than 10 h and the “S14 mRNA induction in T47D cells” value (S14 mRNA [4]) is listed as “significantly induces”. The “S14 mRNA induction, time course” value (S14 mRNA [5]; [7]) was “comparable to that observed with R1881” and the “lag time between application of the hormone and onset of accumulation of S14 mRNA” value (S14 mRNA [5]; time course, T47D cells) was greater than 10 h.
